Source: DBAASP
≈ marks a conversion by molar mass, not a printed value. Values belong to the compound of their own block, whether it stands above or below them.

How the values were obtained:
Test in all cases: ≥ marks a high value that may be exact or a test limit, other limits are often not marked, values filed in µg/mL are converted to µM
[1] = test system: Escherichia coli ATCC 25922
Escherichia coli K88 = test system: Escherichia coli K88
Escherichia coli K99 = test system: Escherichia coli K99
Escherichia coli UB1005 = test system: Escherichia coli UB1005
[2] = test system: Lacticaseibacillus rhamnosus 1.0385
[3] = test system: Lacticaseibacillus rhamnosus 1.0911
[4] = test system: Lacticaseibacillus rhamnosus 1.0936
[5] = test system: Lacticaseibacillus rhamnosus 7469
[6] = test system: Lactiplantibacillus plantarum 8014
[7] = test system: Pseudomonas aeruginosa ATCC 27853
[8] = test system: Salmonella enterica subsp. enterica serovar Pullorum C79-13
[9] = test system: Salmonella enterica subsp. enterica serovar Typhimurium ATCC 14028
[10] = test system: Salmonella enterica subsp. enterica serovar Typhimurium C77-31
[11] = test system: Staphylococcus aureus ATCC 25923
[12] = test system: Staphylococcus aureus ATCC 29213
[13] = test system: Staphylococcus aureus ATCC 43300
[14] = test system: Bacillus megaterium ATCC 10778
Candida albicans MDM8 = test system: Candida albicans MDM8
[15] = test system: Candida tropicalis IOC 4560
[16] = test system: Enterobacter cloacae beta-12
Escherichia coli SBS 363 = test system: Escherichia coli SBS 363
Micrococcus luteus A270 = test system: Micrococcus luteus A270
[17] = test system: Serratia marcescens ATCC 4112
[18] = test system: Staphylococcus epidermidis ATCC 12228
Escherichia coli AB94012 = test system: Escherichia coli AB94012
[19] = test system: Pseudomonas aeruginosa ATCC 9027
[20] = test system: Staphylococcus aureus AB6538
[21] = test system: Staphylococcus aureus AB94004
[22] = test system: Candida albicans FRR 5580
[23] = test system: Staphylococcus aureus SH1000
Escherichia coli = test system: Escherichia coli
[24] = test system: Staphylococcus aureus ATCC BAA-1683
[25] = test system: Acinetobacter baumannii ATCC 19606
[26] = test system: Klebsiella pneumoniae ATCC 700603
[27] = test system: Klebsiella pneumoniae ATCC BAA-2146
[28] = test system: Pseudomonas aeruginosa FADDI-PA070
[29] = test system: Staphylococcus aureus NRS 17
[30] = test system: Staphylococcus aureus NRS 1
[31] = test system: Staphylococcus aureus VRSA10
[32] = test system: Staphylococcus aureus VRSA1
[33] = test system: Streptococcus pneumoniae ATCC 700677

Compound: C[C@H](NC(=O)[C@H](C)NC(=O)[C@H](Cc1c[nH]c2ccccc12)NC(=O)[C@H](Cc1c[nH]c2ccccc12)NC(=O)[C@H](Cc1c[nH]c2ccccc12)NC(=O)[C@H](CCCN=C(N)N)NC(=O)[C@@H]1CSSC[C@H](N)C(=O)N[C@@H](C)C(=O)N[C@@H](CO)C(=O)N[C@@H](Cc2ccc(O)cc2)C(=O)N[C@@H](Cc2ccccc2)C(=O)N1)C(N)=O [CASYFCRWWWAA]
MIC [1]: > 64 µM | MIC (Escherichia coli K88): ≥ 64 µM | MIC (Escherichia coli K99): ≥ 64 µM | MIC (Escherichia coli UB1005): ≥ 64 µM | MIC [2]: ≥ 64 µM | MIC [3]: ≥ 64 µM | MIC [4]: ≥ 64 µM | MIC [5]: ≥ 64 µM | MIC [6]: ≥ 64 µM | MIC [7]: > 64 µM | MIC [8]: ≥ 64 µM | MIC [9]: > 64 µM | MIC [10]: ≥ 64 µM | MIC [11]: > 64 µM | MIC [12]: > 64 µM | MIC [13]: > 64 µM

Compound: CC[C@H](C)[C@H](NC(=O)[C@H](CO)NC(=O)[C@@H]1CCCN1C(=O)[C@H](CC(C)C)NC(=O)[C@@H](NC(=O)[C@H](CO)NC(=O)CNC(=O)[C@H](CC(C)C)NC(=O)[C@@H](NC(=O)[C@H](CO)NC(=O)CNC(=O)[C@H](CC(C)C)NC(=O)[C@H](CC(C)C)NC(=O)CNC(=O)[C@H](CC(C)C)NC(=O)[C@@H](N)Cc1ccccc1)C(C)C)C(C)C)C(=O)N[C@@H](Cc1ccccc1)C(=O)N[C@@H](CCCCN)C(N)=O [FLGLLGSVLGSVLPSIFK]
MIC (Escherichia coli AB94012): ≥ 54.1 µM | MIC [1]: > 54.1 µM | MIC [7]: > 54.1 µM | MIC [19]: > 54.1 µM | MIC [20]: 6.77 µM (≈ 12.5 µg/mL) | MIC [21]: 6.77 µM (≈ 12.5 µg/mL)

Compound: CC(C)[C@H](NC(=O)[C@@H]1CCCN1C(=O)[C@H](Cc1ccccc1)NC(=O)[C@H](CCCCN)NC(=O)CNC(=O)[C@H](CCCCN)NC(=O)[C@H](Cc1c[nH]c2ccccc12)NC(=O)[C@H](Cc1c[nH]c2ccccc12)NC(=O)[C@H](CCCCN)NC(=O)[C@H](Cc1c[nH]c2ccccc12)NC(=O)[C@H](Cc1c[nH]c2ccccc12)NC(=O)[C@H](CCCN=C(N)N)NC(=O)[C@H](Cc1c[nH]c2ccccc12)NC(=O)[C@@H](NC(=O)[C@@H](NC(=O)[C@@H]1CCCN1C(=O)[C@@H](N)Cc1ccccc1)C(C)C)[C@@H](C)O)C(=O)N[C@H](C(=O)N[C@@H](Cc1c[nH]c2ccccc12)C(=O)N[C@@H](CCCN=C(N)N)C(=O)N[C@@H](Cc1c[nH]c2ccccc12)C(=O)N[C@@H](Cc1c[nH]c2ccccc12)C(=O)N[C@@H](CCCCN)C(=O)N[C@@H](Cc1c[nH]c2ccccc12)C(=O)N[C@@H](Cc1c[nH]c2ccccc12)C(=O)N[C@@H](CCCCN)C(=O)NCC(=O)O)[C@@H](C)O [FPVTWRWWKWWKGKFPVTWRWWKWWKG]
MIC [22]: ≥ 32.6 µM | MIC [1]: 65.2 µM (≈ 250 µg/mL) | MIC [19]: > 65.2 µM | MIC [11]: 65.2 µM (≈ 250 µg/mL)

Compound: CC(C)C[C@H](NC(=O)[C@H](CC(C)C)NC(=O)[C@H](CCCCN)NC(=O)[C@H](CC(C)C)NC(=O)[C@H](CC(C)C)NC(=O)[C@H](CCCCN)NC(=O)[C@H](CCCCN)NC(=O)[C@H](CC(C)C)NC(=O)[C@H](CC(C)C)NC(=O)[C@H](CCCCN)NC(=O)[C@H](CC(C)C)NC(=O)[C@H](CC(C)C)NC(=O)[C@@H](N)CCCCN)C(=O)NCC(N)=O [KLLKLLKKLLKLLG]
MIC [23]: ≥ 100 µM

Compound: CC[C@H](C)[C@H](NC(=O)[C@@H](N)CC(C)C)C(=O)NCC(=O)N[C@@H](CC(C)C)C(=O)N[C@H](C(=O)N[C@@H](CO)C(=O)N[C@@H](CCCCN)C(=O)NCC(=O)N[C@H](C(=O)N[C@H]1CSSC[C@@H](C(=O)N[C@@H](CCCCN)C(=O)N[C@@H](CCCCN)C(=O)N[C@H](C(=O)N[C@@H](CC(C)C)C(=O)N[C@@H](CCCCN)C(=O)N[C@@H](CCC(N)=O)C(N)=O)C(C)C)NC(=O)[C@H](C(C)C)NC(=O)[C@H]([C@@H](C)O)NC(=O)[C@H](CCCCN)NC(=O)[C@H](C(C)C)NC(=O)[C@H](CC(C)C)NC(=O)[C@H](C(C)C)NC1=O)[C@@H](C)O)C(C)C [LIGLVSKGTCVLVKTVCKKVLKQ]
MIC [25]: > 9.6 µM | MIC [1]: > 9.6 µM | MIC [26]: > 9.6 µM | MIC [27]: 9.6 µM (≈ 23.6 µg/mL) | MIC [7]: > 9.6 µM | MIC [28]: 9.6 µM (≈ 23.6 µg/mL) | MIC [13]: > 9.6 µM | MIC [29]: 9.6 µM (≈ 23.6 µg/mL) | MIC [30]: 9.6 µM (≈ 23.6 µg/mL) | MIC [31]: 9.6 µM (≈ 23.6 µg/mL) | MIC [32]: 9.6 µM (≈ 23.6 µg/mL) | MIC [33]: 9.6 µM (≈ 23.6 µg/mL)

Now from value to compound:

MIC [14]: ≥ 50 µM | MIC (Candida albicans MDM8): ≥ 50 µM | MIC [15]: ≥ 50 µM | MIC [16]: ≥ 50 µM | MIC (Escherichia coli SBS 363): ≥ 50 µM | MIC (Micrococcus luteus A270): ≥ 50 µM | MIC [17]: ≥ 50 µM | MIC [12]: > 50 µM | MIC [18]: > 50 µM
Compound: CC(C)C[C@H](NC(=O)[C@H](C)NC(=O)CNC(=O)[C@H](CC(C)C)NC(=O)[C@@H](N)Cc1ccccc1)C(=O)N[C@@H](Cc1c[nH]c2ccccc12)C(=O)N[C@@H](CC(N)=O)C(=O)N[C@H](C(=O)N[C@@H](CCCCN)C(=O)N[C@@H](CCCCN)C(=O)N[C@@H](CO)C(=O)N[C@H](C(=O)N[C@@H](Cc1ccccc1)C(N)=O)C(C)C)C(C)C [FLGALWNVKKSVF]

MIC (Escherichia coli): 173 µM (≈ 250 µg/mL) | MIC [11]: 21.7 µM (≈ 31.2 µg/mL) | MIC [24]: ≥ 43.3 µM
Compound: CC(C)C[C@H](NC(=O)[C@H](CC(C)C)NC(=O)[C@H](CCCCN)NC(=O)[C@H](Cc1c[nH]c2ccccc12)NC(=O)[C@H](Cc1c[nH]c2ccccc12)NC(=O)[C@@H](N)CCCCN)C(=O)N[C@@H](CCCN=C(N)N)C(=O)N[C@@H](CCCCN)C(=O)N[C@@H](CCCCN)C(=O)N[C@@H](CCCN=C(N)N)C(N)=O [KWWKLLRKKR]
